Values of other authors as cited in patent publication US7659300B2, “Monocyclic anilide spirolactam CGRP receptor antagonists” (Merck Sharp & Dohme Corp., priority 2004, dated 2010).
No end group written: not given here.

Experiments:
migraine = conditions: clinical studies, intravenously administered (Olesen et al. 2004)
facial blood flow [1] = conditions: marmoset, electrical stimulation of the trigeminal ganglion (Doods et al. 2000)
facial blood flow [2] = conditions: rat, trigeminal ganglion stimulation (Escott et al. 1995)
middle meningeal artery = conditions: rats, electrical stimulation of the dura mater, prior administration (Williamson et al. 1997)

For `NCCCC[C@H](NC(=O)[C@@H](Cc1cc(Br)c(O)c(Br)c1)NC(=O)N1CCC(N2Cc3ccccc3NC2=O)CC1)C(=O)N1CCN(c2ccncc2)CC1` [BIBN4096BS], the “acute treatment of migraine” value (migraine) is listed as “safe and effective acute treatment for migraine” and the “increase in facial blood flow” value (facial blood flow [1]) is listed as “blocked”.

For “CGRP(8-37): a peptide CGRP antagonist; fragment of CGRP that lacks seven N-terminal amino acid residues (VTHRLAGLLSRSGGVVKNNFVPTNVGSKAF; ends and bridges not checked; UniProt P06881 90-119, looked up, fragment)”, the “increase of facial blood flow” value (facial blood flow [2]) is given as “inhibited” and the “increase of the diameter of the middle meningeal artery” value (middle meningeal artery) is given as “blocked”.
